Experimental data from patent US20080026417A1, “ASSAYS FOR TRICHOMONAL AND OTHER HYDROLASES” (priority 2002, published 2008).

Assays:
trichomonal hydrolases [1] = assay: Experiment 13: hydrolysis of peptide substrates by trichomonal hydrolases at low pH, no vaginal fluid; type: biochemical, Trichomonas vaginalis; parameters: key: −: No red color produced; +: Clearly visible red color produced; ++: Moderately intense red color produced; +++: Very intense red color produced; settings: without vaginal fluid; threonine buffer pH 2.4; 2 mM substrate solution; 10 min 25° C.; Fast Garnet
Procedure: (§1) Forty μL of each substrate was pipetted into duplicate wells of a microtiter plate. The plate was covered with tape, placed into a 25° C. incubator, and allowed to warm. A diluted enzyme mixture was prepared by mixing one part (v/v) freshly-thawed trichomonal hydrolase solution to nine parts 2 mM L-cysteine solution. Forty μL of this mixture was added to one well of each pair of duplicate wells. For negative controls, 40 μL of 2 mM L-cysteine was added to the second well in each pair of duplicate wells. The plate was returned to the incubator and incubated for ten minutes. Forty μL of SDS/acetate solution was added to each well, followed by 40 μL of Fast Garnet solution. The intensity of color that developed in each well after five minutes was visually scored using the color scale presented in Table 13.1.

trichomonal hydrolases [2] = assay: Experiment 13: hydrolysis of peptide substrates by trichomonal hydrolases at low pH in vaginal fluid supernatant; type: biochemical, Trichomonas vaginalis; parameters: key: −: No red color produced; +: Clearly visible red color produced; ++: Moderately intense red color produced; +++: Very intense red color produced; settings: Fast Garnet
Procedure: as §1
Of the nine substrates hydrolyzed by trichomonal hydrolases to produce an intense pink color (scoring ++ or +++) in the absence of vaginal fluid supernatant, only four produced intense pink color when vaginal fluid supernatant was present.

trichomonal hydrolases [3] = assay: Experiment 12: hydrolysis of ZRRR-MNA by trichomonal hydrolases in four buffers; type: biochemical, Trichomonas vaginalis; settings: for Score: substrate ZRRR-MNA, Fast Red RL, 0-9 scale
Procedure: Fifty μL of each buffer solution, at pH 2.0, 2.2, 2.4, or 2.6, was pipetted into separate wells of a microtiter plate. Twenty-five μL of 8 mM ZRRR-MNA and 25 μL of 10% trichomonal hydrolase solution were added to each well, and 20 μL were then removed from each well for measurement of final pH. Ten minutes after the mixtures were made, a Dacron swab was inserted into each well to absorb the liquid, then each swab was rubbed on a Fast Red RL film. The intensity of pink color that developed on each swab after five minutes was visually scored in 0.5 unit increments using the 0-9 color scale presented in Table 11.1 of the preceding example.

trichomonal hydrolases [4] = assay: Experiment 1: hydrolysis of substrates by trichomonal hydrolases at pH 2.8-9.2, with or without normal vaginal fluid supernatant (NVS), absorbance 540 nm; type: biochemical, Trichomonas vaginalis; settings: 540 nm
Procedure: Assays without normal vaginal fluid supernatant present: Two sets of six wells in a microtiter plate were prepared, with each well containing 80 μL of one of the six 200 mM buffers, 10 μL of water and 10 μL of diluted trichomonal hydrolases. Ten μL of ZRR-MNA was added to each well in the first set of wells, and 10 μl of VLK-MNA was added to each well in the second set of wells. After fifteen minutes, 100 μl of indicator solution was added to each well. Because a high pH can reduce the intensity of color produced by the indicator solution, 50 μl of 100 mM acetic acid buffer, pH 3.7, was added to each well except the pH 2.8 wells (water was substituted for the acetic acid in those wells). After another fifteen minutes, the absorbance of the solutions in the wells was measured on a microtiter plate reader set on 540 nm wavelength.
Assays with normal vaginal fluid supernatant (NVS) present: The procedure of the preceding paragraph was followed, except that 10 μL of diluted NVS was added to the wells in place of the 10 μL of water.

trichomonal hydrolases [5] = assay: Experiment 8: polypeptide inhibition of trichomonal hydrolases; type: biochemical, Trichomonas vaginalis; parameters: key: 0: Yellow; 1: Peach; 2: Orange; 3: Light to medium pink; 4: Dark pink or red; 5: Fuchsia; 6: Purple; settings: 10 mM polypeptide in substrate solution
Procedure: (§2) The vaginal fluid was extracted from each swab by centrifugation, and then mixed to resuspend the particulate matter. For each donor, 2 μL of vaginal fluid was pipetted into each of ten microwells, then 2 μL of one of the ten substrate/buffer/polypeptide combinations was added to each well. Additionally, 2 μL of trichomonal hydrolases was mixed with 2 μL of each of the substrate/polypeptide combinations in set of ten wells. After fifteen minutes, 2 μL of indicator solution was added to each well.

[6] = tested on: non-trichomonal hydrolases present in vaginal fluid; assay: Experiment 8: polypeptide inhibition of hydrolases in whole vaginal fluid of uninfected women; type: biochemical, human; parameters: key: 0: Yellow; 1: Peach; 2: Orange; 3: Light to medium pink; 4: Dark pink or red; 5: Fuchsia; 6: Purple; settings: ZRR-MNA, 10 mM polypeptide in substrate solution
Procedure: as §2

[7] = tested on: non-trichomonal hydrolases present in whole vaginal fluid; assay: Experiment 9: dipeptide inhibition of hydrolases in whole vaginal fluid of uninfected women; type: biochemical, human; parameters: key: 0: Yellow; 1: Peach; 2: Orange; 3: Light to medium pink; 4: Dark pink or red; 5: Fuchsia; 6: Purple; settings: ZRR-MNA, 10 mM dipeptide in substrate solution
Procedure: (§3) For each specimen, the vaginal fluid was extracted from the swab by centrifugation, 2 μL of the vaginal fluid supernatant was removed from the microfuge tube, and the remainder of the fluid was mixed to resuspend the particulate matter. For each specimen, 2 μL of the thus reconstituted vaginal fluid was pipetted into each of four microwells, then 2 μL of one of the four substrate/dipeptide combinations was added to each well. The 2 μL of vaginal fluid supernatant from each specimen was mixed with 18 μL of trichomonal hydrolases, and 2 μL of this mixture was mixed with 2 μL of each of the substrate/dipeptide combinations in another set of four wells. After fifteen minutes, 2 μL of indicator solution was added to each well.

trichomonal hydrolases [8] = assay: Experiment 9: dipeptide inhibition of trichomonal hydrolases mixed with vaginal fluid supernatant; type: biochemical, Trichomonas vaginalis; parameters: key: 0: Yellow; 1: Peach; 2: Orange; 3: Light to medium pink; 4: Dark pink or red; 5: Fuchsia; 6: Purple; settings: trichomonal hydrolase added, ZRR-MNA, 10 mM dipeptide in substrate solution
Procedure: as §3

[9] = Donor A vaginal fluid supernatant
[10] = Donor B vaginal fluid supernatant
[11] = Donor C vaginal fluid supernatant
[12] = Donor D vaginal fluid supernatant

Molecule | Color Score (trichomonal hydrolases [1]) | Color Score (trichomonal hydrolases [2]) | Hydrolase activity color score with dipeptide ([7]; Donor A whole vaginal fluid) | Hydrolase activity color score with dipeptide ([7]; Donor B whole vaginal fluid) | Hydrolase activity color score with dipeptide ([7]; Donor C whole vaginal fluid) | Hydrolase activity color score with dipeptide ([7]; Donor D whole vaginal fluid) | Hydrolase activity color score with dipeptide (trichomonal hydrolases [8]; [9]) | Hydrolase activity color score with dipeptide (trichomonal hydrolases [8]; [10]) | Hydrolase activity color score with dipeptide (trichomonal hydrolases [8]; [11]) | Hydrolase activity color score with dipeptide (trichomonal hydrolases [8]; [12]) | also measured
COc1cc(NC(=O)[C@H](CCCNC(=N)N)NC(=O)[C@@H](NC(=O)[C@H](Cc2ccccc2)NC(=O)c2ccccc2)C(C)C)cc2ccccc12 [BZ-Phe-Val-Arg-MNA] | ++ | + |  |  |  |  |  |  |  |  | 
COc1cc(NC(=O)[C@H](CCCN=C(N)N)NC(=O)[C@H](CCCN=C(N)N)NC(=O)[C@H](C)NC(=O)OCc2ccccc2)cc2ccccc12 [CBZ-Ala-Arg-Arg-MNA] | ++ | + |  |  |  |  |  |  |  |  | 
COc1cc(NC(=O)[C@H](CCCNC(=N)N)NC(=O)[C@H](Cc2ccccc2)NC(=O)OCc2ccccc2)cc2ccccc12 [CBZ-Phe-Arg-MNA] | ++ | + |  |  |  |  |  |  |  |  | 
C[C@@H](O)[C@H](N)C(=O)O [L-threonine] |  |  |  |  |  |  |  |  |  |  | Score (trichomonal hydrolases [3]; pH 2.0 Buffer (100 mM)): 3.5; Final pH (trichomonal hydrolases [3]; pH 2.0 Buffer after mixing with substrate and trichomonal hydrolase solution): pH 2.3; Score (trichomonal hydrolases [3]; pH 2.2 Buffer (100 mM)): 6.0; Final pH (trichomonal hydrolases [3]; pH 2.2 Buffer after mixing with substrate and trichomonal hydrolase solution): pH 2.4; Score (trichomonal hydrolases [3]; pH 2.4 Buffer (100 mM)): 6.5; Final pH (trichomonal hydrolases [3]; pH 2.4 Buffer after mixing with substrate and trichomonal hydrolase solution): pH 2.7; Score (trichomonal hydrolases [3]; pH 2.6 Buffer (100 mM)): 6.0; Final pH (trichomonal hydrolases [3]; pH 2.6 Buffer after mixing with substrate and trichomonal hydrolase solution): pH 2.9
COc1cc(NC(=O)C(CCCCN)NC(=O)C(CC(C)C)NC(=O)C(N)C(C)C)cc2ccccc12 [VLK-MNA, D-Val-Leu-Lys-MNA] | ++ | + |  |  |  |  |  |  |  |  | Absorbance Readings (trichomonal hydrolases [4]; with vaginal fluid supernatant, Acetate pH 5.1): 0.065; Absorbance Readings (trichomonal hydrolases [4]; with vaginal fluid supernatant, Borate pH 9.2): 0.062; Absorbance Readings (trichomonal hydrolases [4]; with vaginal fluid supernatant, Gly-gly pH 2.8): 0.094; Absorbance Readings (trichomonal hydrolases [4]; with vaginal fluid supernatant, HEPES pH 7.5): 0.063; Absorbance Readings (trichomonal hydrolases [4]; with vaginal fluid supernatant, MOPS pH 7.0): 0.066; Absorbance Readings (trichomonal hydrolases [4]; with vaginal fluid supernatant, TRIS pH 8.0): 0.073; Absorbance Readings (trichomonal hydrolases [4]; without vaginal fluid supernatant, Acetate pH 5.1): 1.622; Absorbance Readings (trichomonal hydrolases [4]; without vaginal fluid supernatant, Borate pH 9.2): 1.459; Absorbance Readings (trichomonal hydrolases [4]; without vaginal fluid supernatant, Gly-gly pH 2.8): 0.691; Absorbance Readings (trichomonal hydrolases [4]; without vaginal fluid supernatant, HEPES pH 7.5): 1.217; Absorbance Readings (trichomonal hydrolases [4]; without vaginal fluid supernatant, MOPS pH 7.0): 1.087; Absorbance Readings (trichomonal hydrolases [4]; without vaginal fluid supernatant, TRIS pH 8.0): 1.219
COc1cc(NC(=O)[C@H](CCCN=C(N)N)NC(=O)[C@H](CC(C)C)NC(=O)OCc2ccccc2)cc2ccccc12 [ZLR, CBZ-Leu-Arg-MNA] | +++ | +++ |  |  |  |  |  |  |  |  | 
Arg-Lys-Asn-Val-Tyr (RKNVY; printed: Arg-Lys-Asn-Val-Tyr) |  |  |  |  |  |  |  |  |  |  | Hydrolase activity color score with polypeptide (trichomonal hydrolases [5]; pH 5, ZRR-MNA): 3; Hydrolase activity color score with polypeptide (trichomonal hydrolases [5]; pH 8, ZRR-MNA): 3; Hydrolase activity color score with polypeptide ([6]; pH 5, Donor A whole vaginal fluid): 0.5; Hydrolase activity color score with polypeptide ([6]; pH 5, Donor B whole vaginal fluid): 0; Hydrolase activity color score with polypeptide ([6]; pH 5, Donor C whole vaginal fluid): 0; Hydrolase activity color score with polypeptide ([6]; pH 5, Donor D whole vaginal fluid): 0; Hydrolase activity color score with polypeptide ([6]; pH 8, Donor A whole vaginal fluid): 0.5; Hydrolase activity color score with polypeptide ([6]; pH 8, Donor B whole vaginal fluid): 0.5; Hydrolase activity color score with polypeptide ([6]; pH 8, Donor C whole vaginal fluid): 1; Hydrolase activity color score with polypeptide ([6]; pH 8, Donor D whole vaginal fluid): 1
Lysine-lysine |  |  | 1 | 0 | 0 | 2.5 | 1 | 2 | 1 | 2 | 
Lysine-proline |  |  | 0 | 0 | 0 | 0 | 1 | 1 | 0.5 | 2 | 
Lysine-valine |  |  | 1 | 0 | 0 | 1.5 | 1 | 2 | 1 | 2 | 
